Where two headings read alike, the source gives them in different places.
Test system: Ips engravers beetles
Type: in vivo
Experimental: Study Sites: Two 20-year-old, recently thinned loblolly pine plantations were selected in Texas. Trees in one plantation were injected for use in a bolt study (Trial 1). Trees in ½ acre section of the second plantation were injected as part of a single-tree protection study (Trial 2). A staging area also was set up in the second plantation where bolts from the first plantation were exposed to bark beetles and wood borers.
Population Monitoring: A clear panel of acetate (10 cm wide by 25 cm long) was attached to the center of each bolt after deployment of bolts or 2 m high on standing trees after deployment of pheromone baits to monitor arrival of bark beetles. The top surface of each panel was coated entirely with Stikem Special® trapping compound (Michel and Pelton, Emeryville, Calif.). The traps were left in place for two weeks.
After 1 (May 24), 3 (July 19) and 5 (September) months post-injection, 5 trees of each treatment were felled and two 1.5 m long bolts were removed from the 3 m and 8 m heights of the bole. Because southern pine beetle (SPB) populations were extremely low in east Texas during the study year, Ips engravers were used as alternative bark beetles for this study. The bolts were transported to a 20-year-old loblolly plantation that was recently thinned and contained fresh slash material. Each bolt was placed about 1 m apart on discarded, dry pine bolts to maximize surface area available for colonization as well as to discourage predation by ground and litter-inhabiting organisms. To facilitate timely bark beetle colonization, packets of bark beetle pheromones (racemic ipsdienol +lanerione combination, ipsenol or cis-verbenol; Phero Tech, Inc., Delta, BC, Canada) were attached separately to three 1 m stakes evenly spaced in the study area. Racemic ipsdienol and cis-verbenol were used with the second series of bolts deployed in July. The packets were removed after 2 weeks when signs of attacks (boring dust) were observed on most test bolts, signaling that naturally-produced pheromones were present.
Treatment Evaluation: Trial 1. The first and second series of bolts were retrieved 2.5 and 3 weeks, respectively, after deployment, after observing many cerambycid attacks on most of the bolts. In the laboratory, two 10×50 cm strips (total=1000 cm^2) of bark were removed from each bolt. Several measurements were made relating to construction of nuptial chambers and egg galleries and development of brood: • 1. Number of unsuccessful attacks—penetration to phloem, but no egg galleries. • 2. Number of successful attacks—construction of nuptial chamber and at least one egg gallery extending from it. • 3. Number and lengths of egg galleries with brood galleries radiating from them. • 4. Number and lengths of egg galleries without brood galleries. • 5. Cerambycid activity, estimated by overlaying a 100 cm^2 grid over a portion of each bark strip and counting the number of squares overlapping area where cerambycids had fed.
Treatment efficacy was determined by comparing Ips beetle attacks and egg gallery length and cerambycid feeding on treated and untreated bolts. The data were transformed by log10(x+1) to satisfy criteria for normality and homoscedasticity (Zar 1984) and analyzed by GLM and the Fishers Protected LSD test using the Statview statistical program.

[1] = 1 month post-injection (May), bolt height 3 m
[2] = 1 month post-injection (May), bolt height 8 m
[3] = 3 months post-injection (July), bolt height 3 m
[4] = 3 months post-injection (July), bolt height 8 m
[5] = 3 months post-injection, bolt height 3 m
[6] = 3 months post-injection, bolt height 8 m
[7] = 5 months post-injection (Sept.), bolt height 3 m
[8] = 5 months post-injection (Sept.), bolt height 8 m

Structure (SMILES): O=[N+]([O-])NC1=NCCN1Cc1ccc(Cl)nc1 [Imid]
- Length of Egg Galleries Total [1]: 442.2
- Length of Egg Galleries With Brood [1]: 283.2 cm
- Length of Egg Galleries With Brood % of Total [1]: 64.0%
- Length of Egg Galleries Without Brood [1]: 159.0 cm
- Length of Egg Galleries Without Brood % of Total [1]: 36.0%
- Mean # of Ips caught/trap [1]: 5.6
- Number of Egg Galleries Total [1]: 65.2
- Number of Egg Galleries With Brood % of Total [1]: 46.0%
- Number of Egg Galleries With Brood No. [1]: 30.0
- Number of Egg Galleries Without Brood % of Total [1]: 54.0%
- Number of Egg Galleries Without Brood No. [1]: 35.2
- Nuptial Chambers Total [1]: 18.2
- Nuptial Chambers With Egg Galleries % of Total [1]: 89.0%
- Nuptial Chambers With Egg Galleries No. [1]: 16.2
- Nuptial Chambers Without Egg Galleries % of Total [1]: 11.0%
- Nuptial Chambers Without Egg Galleries No. [1]: 2.0
- Length of Egg Galleries Total [2]: 315.8
- Length of Egg Galleries With Brood [2]: 197.0 cm
- Length of Egg Galleries With Brood % of Total [2]: 62.4%
- Length of Egg Galleries Without Brood [2]: 118.8 cm
- Length of Egg Galleries Without Brood % of Total [2]: 37.6%
- Mean # of Ips caught/trap [2]: 3.8
- Number of Egg Galleries Total [2]: 49.0
- Number of Egg Galleries With Brood % of Total [2]: 39.6%
- Number of Egg Galleries With Brood No. [2]: 19.4
- Number of Egg Galleries Without Brood % of Total [2]: 60.4%
- Number of Egg Galleries Without Brood No. [2]: 29.6
- Nuptial Chambers Total [2]: 15.8
- Nuptial Chambers With Egg Galleries % of Total [2]: 81.0%
- Nuptial Chambers With Egg Galleries No. [2]: 12.8
- Nuptial Chambers Without Egg Galleries % of Total [2]: 19.0%
- Nuptial Chambers Without Egg Galleries No. [2]: 3.0
- Mean # of Ips caught/trap [3]: 2.6
- Nuptial Chambers Total [3]: 10.8
- Nuptial Chambers With Egg Galleries % of Total [3]: 61.1%
- Nuptial Chambers With Egg Galleries No. [3]: 6.6
- Nuptial Chambers Without Egg Galleries % of Total [3]: 38.9%
- Nuptial Chambers Without Egg Galleries No. [3]: 4.2
- Mean # of Ips caught/trap [4]: 2.0
- Nuptial Chambers Total [4]: 9.4
- Nuptial Chambers With Egg Galleries % of Total [4]: 59.6%
- Nuptial Chambers With Egg Galleries No. [4]: 5.6
- Nuptial Chambers Without Egg Galleries % of Total [4]: 40.4%
- Nuptial Chambers Without Egg Galleries No. [4]: 3.8
- Length of Egg Galleries Total [5]: 187.4
- Length of Egg Galleries With Brood [5]: 151.4 cm
- Length of Egg Galleries With Brood % of Total [5]: 80.8%
- Length of Egg Galleries Without Brood [5]: 36.0 cm
- Length of Egg Galleries Without Brood % of Total [5]: 19.2%
- Number of Egg Galleries Total [5]: 20.6
- Number of Egg Galleries With Brood % of Total [5]: 68.9%
- Number of Egg Galleries With Brood No. [5]: 14.2
- Number of Egg Galleries Without Brood % of Total [5]: 31.1%
- Number of Egg Galleries Without Brood No. [5]: 6.4
- Length of Egg Galleries Total [6]: 130.0
- Length of Egg Galleries With Brood [6]: 87.4 cm
- Length of Egg Galleries With Brood % of Total [6]: 67.2%
- Length of Egg Galleries Without Brood [6]: 42.6 cm
- Length of Egg Galleries Without Brood % of Total [6]: 32.8%
- Number of Egg Galleries Total [6]: 17.4
- Number of Egg Galleries With Brood % of Total [6]: 52.9%
- Number of Egg Galleries With Brood No. [6]: 9.2
- Number of Egg Galleries Without Brood % of Total [6]: 47.1%
- Number of Egg Galleries Without Brood No. [6]: 8.2
- Length of Egg Galleries Total [7]: 163.4
- Length of Egg Galleries With Brood [7]: 154.2 cm
- Length of Egg Galleries With Brood % of Total [7]: 94.4%
- Length of Egg Galleries Without Brood [7]: 9.2 cm
- Length of Egg Galleries Without Brood % of Total [7]: 5.6%
- Mean # of Ips caught/trap [7]: 1.6
- Number of Egg Galleries Total [7]: 13.2
- Number of Egg Galleries With Brood % of Total [7]: 89.4%
- Number of Egg Galleries With Brood No. [7]: 11.8
- Number of Egg Galleries Without Brood % of Total [7]: 10.6%
- Number of Egg Galleries Without Brood No. [7]: 1.4
- Nuptial Chambers Total [7]: 4.6
- Nuptial Chambers With Egg Galleries % of Total [7]: 95.7%
- Nuptial Chambers With Egg Galleries No. [7]: 4.4
- Nuptial Chambers Without Egg Galleries % of Total [7]: 4.3%
- Nuptial Chambers Without Egg Galleries No. [7]: 0.2
- Length of Egg Galleries Total [8]: 164.4
- Length of Egg Galleries With Brood [8]: 144.8 cm
- Length of Egg Galleries With Brood % of Total [8]: 88.1%
- Length of Egg Galleries Without Brood [8]: 19.6 cm
- Length of Egg Galleries Without Brood % of Total [8]: 11.9%
- Mean # of Ips caught/trap [8]: 1.5
- Number of Egg Galleries Total [8]: 18.0
- Number of Egg Galleries With Brood % of Total [8]: 81.1%
- Number of Egg Galleries With Brood No. [8]: 14.6
- Number of Egg Galleries Without Brood % of Total [8]: 18.9%
- Number of Egg Galleries Without Brood No. [8]: 3.4
- Nuptial Chambers Total [8]: 7.2
- Nuptial Chambers With Egg Galleries % of Total [8]: 69.4%
- Nuptial Chambers With Egg Galleries No. [8]: 5.0
- Nuptial Chambers Without Egg Galleries % of Total [8]: 30.6%
- Nuptial Chambers Without Egg Galleries No. [8]: 2.2

From patent US20080039515A1, “Arylpyrazoles And Methods Of Using Same For Control Of Insect Pests That Bore Into Trees” (The Texas A&M University System, priority 2004, published 2008)
